The subject of the test is Mycosphaerella graminicola; anamorph: Septoria tritici; Bayer code SEPTTR. Put plainly: Fungicidal activity as a seed treatment for leaf blotch of wheat (SEPTTR), treated 'Yuma' wheat seeds. In kind it is in vivo. As to the method: Evaluation of Fungicidal Activity as a Seed Treatment for Leaf Blotch of Wheat (Mycosphaerella graminicola; anamorph: Septoria tritici; Bayer code […]) Seeds of wheat variety 'Yuma' were treated with a 1% weight-to-volume (w/v) solution of 5-fluorocytosine in water at rates of 16.5, 5.5, 1.8, and 0 grams of active ingredient per 100 kilograms (g ai/100 kg) of seeds. A red dye and a polymer blend were included in the formulation as inert ingredients. Seeds were allowed to dry thoroughly and were sown 3 days (trial 1) or 5 weeks (trials 2 and 3) after treatment. Seeds (10-12 seeds/pot) were planted in 4 square inch pots containing 50% mineral soil/50% soil-less Metro mix. Eleven-day-old seedlings were inoculated with an aqueous spore suspension of Septoria tritici, and 6-10 pots of plants were inoculated for each fungicide rate. After inoculation, plants were kept in 100% relative humidity three days to allow establishment of infection. The plants were then transferred to a greenhouse until disease developed. When disease on untreated plants was fully expressed , disease severities on treated plants were assessed. […] Trial 1 was the average of 10 pots of plants; Trial 2 was the average of 6 pots of plants; and Trial 3 was the average of 6 pots of plants placed in weigh boats in order to prevent possible loss of the 5-fluorocytosine from soil leaching. The following tables include data showing the activity of 5-fluorocytosine when evaluated in these experiments. The effectiveness of 5-fluorocytosine in controlling disease was determined by assessing the severity of disease on treated plants, then converting the severity to percent control based on the level of disease on untreated, inoculated plants.

In the case of `Nc1nc(=O)[nH]cc1F` [5-fluorocytosine], the “% Disease control (SEPTTR)” value by setting is: (Trial 1, 1.8 g ai/100 kg seeds, sown 3 days after treatment, average of 10 pots) “D (1-25)”; (Trial 1, 5.5 g ai/100 kg seeds, sown 3 days after treatment, average of 10 pots) “C (26-50)”; (Trial 1, 16.5 g ai/100 kg seeds, sown 3 days after treatment, average of 10 pots) “A (76-100)”; (Trial 2, 1.8 g ai/100 kg seeds, sown 5 weeks after treatment, average of 6 pots) “C (26-50)”; (Trial 2, 5.5 g ai/100 kg seeds, sown 5 weeks after treatment, average of 6 pots) “A (76-100)”; (Trial 2, 16.5 g ai/100 kg seeds, sown 5 weeks after treatment, average of 6 pots) “A (76-100)”. For the same molecule, the “% Disease control (SEPTTR)” value by setting is: (Trial 3, 1.8 g ai/100 kg seeds, sown 5 weeks after treatment, 6 pots in weigh boats) “C (26-50)”; (Trial 3, 5.5 g ai/100 kg seeds, sown 5 weeks after treatment, 6 pots in weigh boats) “A (76-100)”; (Trial 3, 16.5 g ai/100 kg seeds, sown 5 weeks after treatment, 6 pots in weigh boats) “A (76-100)”. Also, the “control of SEPTTR (in words)” value (test rate of 16.5 g ai/100 kg seeds) was “significant level of control”.

For the origin of these results see patent publication US20130152233A1, “5-FLUOROCYTOSINE AS A SEED TREATMENT AGENT TO CONTROL PLANT DISEASE” (Dow AgroSciences LLC, priority 2011, published 2013).
